Results as given in patent publication US12622922B2, “Compositions and methods for metal containing formulations capable of modulating immune response” (The Regents of the University of Michigan, priority 2018, dated 2026).

Assays:
[1] = system: cGAS-STING-Type I IFN pathway; assay: Inhibition of DNA/lipofectamine-induced IFN-I response in THP 1 dual-KI-hSTING WT(R232) reporter cells; format: cell-based, human; conditions: DNA/lipofectamine complex challenging, ISRE induced luminescence
From the text: (§1) FIG. 18: Chelating metal ions to inhibit cGAS-STING-Type I IFN pathway. a) Molecular structure of representative chelators that could inhibit cGAS-STING-Type I IFN pathway. b-c) Dose-inhibition curves of the IFN-I response (b) and NF-kB inflammation response (c) by the indicated compounds in DNA/lipofectamine 2000 (ThermoFisher, 11668027) treated THP 1 dual-KI-hSTING^WT(R232) reporter cells (Invivogen, thpd-r232). d) Cellular viability of b-c. e) Dose-inhibition curves of the IFN-I response by the indicated compounds in DNA/lipofectamine 2000 (ThermoFisher, 11668027) treated THP 1-ISG hSTING^HAQ reporter cells (Invivogen, thp-isg). […]
(§2) Given the interesting function of metal ions on modulating innate immune response in our finding, we further evaluated whether chelating metal ions could inhibit the according innate immune pathways, which may be used to treat autoimmune diseases, such as Systemic lupus erythematosus, Aicardi-Goutières syndrome, Acute pancreatitis Age-dependent macular degeneration, Alcoholic liver disease, Liver fibrosis, Metastasis, Myocardial infarction, Nonalcoholic steatohepatitis (NASH), Parkinson's disease, Polyarthritis/fetal and neonatal anemia, Sepsis, inflammatory bowel disease, multiple sclerosis, etc. […] By a ISRE induced luminescence, we could read the degree of inhibition. […]

[2] = system: THP 1 dual-KI-hSTING^WT(R232) reporter cells; assay: Cellular viability of chelator-treated THP 1 dual-KI-hSTING WT(R232) reporter cells; format: cell-based, human
From the text: as §1, §2

CT26 colon cancer cells [3] = assay: CT26 colon tumor model, metal ion plus STING agonist CDA, intratumoral; format: in vivo, Balb/c mice; conditions: CT26 tumor-bearing mice
Experimental: FIG. 6: Enhanced STING activation and cancer therapy efficacy by Co^2+ and Mn^2+ in vivo. a) individual tumor growth curve after three dose of intratumor injection of the indicated formulation at day 9, 12, 15 after tumor inoculation. b) Serum IFN-beta concentration 8 h after the 1st dose of the indicated formulation. c-d) individual tumor growth (c) and survival (d) of the tumor bearing mice after treated with the indicated formulations.
FIG. 7: Enhanced STING activation by Co^2+ and Mn^2+ led to improved antigen specific immune response after in vivo. a) the percentage of AH1-specific CD8+ T cells among PBMC on day 16. b) IFN-γ secreting cells counts per 5E4 PBMCs after stimulation with AH1 peptides at day 22. c-e) timeline (c). tumor growth curve (d) and AH1-specific CD8+ T cells percentage in spleen CD8+ T cells (e) in tumor re-challenging study starting from day 81. […]
We examined whether the enhanced type-I IFN response in vitro could benefit cancer treatment in vivo. We evaluated the combination of metal ions and STING agonist in a murine tumor model.
To study the mechanisms of action for the improved cancer therapy efficacy, we evaluated the treated animals for antigen-specific T cell responses and performed tumor re-challenging study after 81 days of the initial treatment.

CT26 colon cancer cells [4] = system: CT26 colon cancer cells
Experimental: When tumor size reach ˜60 mm^3, 2 doses of 25 μg/dose cdAMP(ps)2 were administrated intra-tumorally on days 10 and 15. To evaluate antigen-specific immune responses, PBMCs were collected for tetramer staining on day 17 and ELISPOT analysis with AH1 antigen peptides on day 22.
Female Balb/c mice of age 6-8 weeks (Jackson Laboratories) were inoculated with 1×10^5 CT26 colon cancer cells. When tumor size achieved ˜100 mm^3, 2 doses of 25 μg cdAMP(ps)2 in different formulations were administrated via intra-tumoral route on day 10 and day 15. Tumor size and survival were monitored every 2 or 3 days. Tumor size was calculated based on equation: volume=length×width^2×0.5. Animals were euthanized when the tumor reached 1.5 cm in diameter or when animals became moribund with severe weight loss or ulceration. At day 17, the percentages of tumor antigen-specific CD8α+ T cells among PBMC were analyzed using the tetramer staining assay as described previously with peptide-MHC tetramer (H-2Kb-restricted AH1) (the NIH Tetramer Core Facility, Atlanta, GA). On day 22, ELISPOT assay was performed with PBMC from the treated mice as described previously.
We also evaluated a subset of the formulations mentioned above in tumor-bearing mice. When tumor size reached ˜60 mm^3, 2 doses of indicated formulation with 25 μg/dose adAMP(ps)2 were administrated intratumorally on days 10 and 15.

| Compound | IC50 of DNA-induced Type I IFN response [1] | tolerability in in-vitro assay (cellular viability) [2] | survival rate (CT26 colon cancer cells [3]) | AH1 antigen-specific T cell response (ELISPOT) (CT26 colon cancer cells [4]; PBMC, day 22, seven days after the 2nd dose) | complete tumor regression (CT26 colon cancer cells [4]; number of mice out of 5) |
| --- | --- | --- | --- | --- | --- |
| O=C1O[C@H]2[C@@H]3OC(=O)c4cc(O)c(O)c(O)c4-c4c(O)c(O)c5oc(=O)c6c(c(O)c(O)c7oc(=O)c4c5c76)-c4c(cc(O)c(O)c4O)C(=O)OC[C@H]3OC(O)[C@@H]2OC(=O)c2cc(O)c(O)c(O)c2-c2c1cc(O)c(O)c2O (mixture of isomers) [Punicalagin] | as low as nanomolar level | well-tolerated |  |  |  |
| Nc1ncnc2c1ncn2[C@@H]1O[C@@H]2COP(=O)(O)O[C@H]3[C@@H](O)[C@H](n4cnc5c(N)ncnc54)O[C@@H]3COP(=O)(O)O[C@H]2[C@H]1O [free CDA] |  |  | 20% |  |  |
| O=C(OC[C@H]1O[C@@H](OC(=O)c2cc(O)c(O)c(OC(=O)c3cc(O)c(O)c(O)c3)c2)[C@H](OC(=O)c2cc(O)c(O)c(OC(=O)c3cc(O)c(O)c(O)c3)c2)[C@@H](OC(=O)c2cc(O)c(O)c(OC(=O)c3cc(O)c(O)c(O)c3)c2)[C@@H]1OC(=O)c1cc(O)c(O)c(OC(=O)c2cc(O)c(O)c(O)c2)c1)c1cc(O)c(O)c(OC(=O)c2cc(O)c(O)c(O)c2)c1 [tannin acid] | as low as nanomolar level | well-tolerated |  |  |  |
| cdAMP(ps)2 [free CDN] |  |  |  | significant | 2 out of 5 |
